The results in this text go back to patent US7101915B1, “P-terphenyl compounds” (Shionogi & Co., Ltd., priority 1996, dated 2006).

≈ marks a conversion by molar mass, not a printed value.

The test system of experiment [1] is IgG2a production of mouse spleen lymphocytes. The experiment can be described thus: Suppressive effect on antibody production of mouse spleen lymphocytes: IgG2a. It counts as cell-based, BALB/c (nu/nu) mice. As to conditions: LPS + IL-4, 10 days. The protocol:
(§1) Experiment 6 Suppressive Effect on Antibody Production of Mouse Spleen Lymphocytes 1. Experimental Method 1) Animals
(§2) BALB/c (nu/nu) mice were bought from Japan SLC, Inc. (Shizuoka) and 7 weeks old-male mice were used.
(§3) RPMI medium (Nissui Pharmaceutical Co., Ltd.) containing 10% fetal bovine serum (HyClone Lab.) inactivated at 56° C. for 30 minutes, penicillin (100 units/ml) and streptomycin (100 μg/ml) (GIBCO) was used for experiments.
(§4) Each of the compounds was dissolved in dimethylsulfoxide (Nakaraitesk) at […] and diluted with the medium to adjust a final concentration to 0.1 μg/ml −10 μg/ml.
(§5) 4) Mouse Spleen Lymphocytes […]
(§6) In 96-well cultivating plate (Sumitomo Bakelite Company Limited) mouse spleen lymphocytes were inoculated 2×10^5 cells per well. […] After the cultivation for 10 days, the amount of the antibody in a supernatant was quantified by ELISA method.
(§7) 7) Quantification of the IgG1, IgG2a and IgM Antibodies
(§8) In 96-well plate 50 μl of 10 μg/ml Goat Anti-Mouse Ig (IgM+G+A, H+ L) (Southern Biotechnology, Birmingham) was added and the plate was coated at 4° C. overnight. […] After washing three times with PBST, 100 μl of culture supernatant which was diluted with PBS or 100 μl of an antibody standard solution (Mouse IgG1 standard, Mouse IgG2a standard, Mouse IgM standard, BETHYL Laboratories) of a pre-determined concentration was added and incubated for 1 hour. […]

Experiment [2] relates to IgE production of mouse spleen lymphocytes (lipopolysaccharide, IL-4). The experiment can be described thus: Suppressive effect on antibody production of mouse spleen lymphocytes: IgE. It is filed as cell-based, BALB/c (nu/nu) mice. As to conditions: LPS + IL-4, 10 days. On the procedure:
as §1, §2, §3, §4
4) Mouse Spleen Lymphocytes
A spleen of mouse was taken out and put in a cultivating schale which was filled with Hanks' solution. The spleen was crushed and the cells were pushed out from the organ and filtered through a metal mesh (200 mesh). After the collected cell suspension was washed by centrifugation with sterile Hanks' solution (Nissui Pharmaceutical Co., Ltd.), sterile distilled water was added. […]
as §6
(§9) 6) Quantification of the IgE Antibody
A commercial mouse IgE EIA kit (Yamasa Shoyu Co., Ltd.) was used for the quantification of the IgE. […]

For experiment [3], the system named is IL-5 production of mouse T cell strain EL-4 (TPA). Nature of the experiment: Suppressive effect on the cytokine production of mouse T cell strain EL-4: IL-5. It counts as cell-based. The following applies: EL-4, TPA 10 ng/ml, 24 hours, ELISA.
Experiment [4] relates to IL-4 production of mouse T cell strain EL-4 (TPA). Nature of the experiment: Suppressive effect on the cytokine production of mouse T cell strain EL-4: IL-4. It is filed as cell-based. As to conditions: EL-4, TPA 10 ng/ml, 24 hours, ELISA.
Experiment [5] deals with IgM production of mouse spleen lymphocytes. The experiment can be described thus: Suppressive effect on antibody production of mouse spleen lymphocytes: IgM. As to conditions: LPS + IL-4, 10 days. It counts as cell-based, BALB/c (nu/nu) mice. The protocol:
as §1, §2, §3, §4, §5, §6, §7, §8

For experiment [6], the system named is IgG1 production of mouse spleen lymphocytes. The experiment can be described thus: Suppressive effect on antibody production of mouse spleen lymphocytes: IgG1. It counts as cell-based, BALB/c (nu/nu) mice. The following applies: LPS + IL-4, 10 days. On the procedure:
as §1, §2, §3, §4, §5, §6, §7, §8

Experiment [7] concerns IL-2 production of mouse T cell strain EL-4 (TPA). Nature of the experiment: Suppressive effect on the cytokine production of mouse T cell strain EL-4: IL-2. It counts as cell-based. The following applies: EL-4, TPA 10 ng/ml, 24 hours, ELISA.
The subject of experiment [8] is IgM production of human peripheral lymphocytes. The experiment can be described thus: Suppressive effect on the antibody production of human lymphocytes: IgM. It is filed as cell-based. As to conditions: 10 days, ELISA. The protocol: (§10) Experiment 5 Suppressive Effect on the Antibody Production of Human Lymphocytes
(§11) 1) Human Peripheral Blood
(§12) Human peripheral blood was drawn from healthy male adults by plastic syringes filled with heparin (final concentration 1.5%). Lymphocytes were collected immediately after blood was drawn.
(§13) RPMI medium (Nissui Pharmaceutical Co., Ltd.) containing 10% fetal bovine serum (HyClone Lab.) inactivated at 56° C. for 30 minutes, penicillin (100 units/ml) and streptomycin (100 μg/ml) (GIBCO) was used. […]
(§14) In 96-well cultivating plate (Sumitomo bakelite) the lymphocytes were inoculated 2×10^5 cells per well, and the compound, anti-human CD 40 antigen (Pharmingen, 2 μg/ml), human recombinant interleukin-4 (IL-4) (Genzyme, 0.1 μg/ml) and human recombinant interleukin-10 (IL-10) (Genzyme, 0.2 μg/ml) were added and cultivated at 37° C. under 5% of CO2 (0.2 ml/well). After the cultivation for 10 days, the amount of antibody in a supernatant was quantified by ELISA method.
(§15) 7) Quantification of the IgG and IgM Antibodies
(§16) ELISA method was used for the quantification. […] After washing three times with PBST, 100 μl of a sample diluted with PBS or 100 μl of human Plasma IgG standard solution or IgM standard solution (BioPur AG, Switzerland) of a pre-determined concentration was added and incubated at room temperature for 1 hour. […]
(An ELISA detects its analyte on a solid surface through an enzyme-linked reagent.)

The test system of experiment [9] is IgE antibody production of human peripheral lymphocytes (anti-human CD 40, IL-4, IL-10). The experiment can be described thus: Suppressive effect on the antibody production of human lymphocytes: IgE. It is filed as cell-based. The following applies: 10 days, ELISA. On the procedure:
as §10, §11, §12
RPMI medium (Nissui Pharmaceutical Co., Ltd.) containing 10% fetal bovine serum (HyClone Lab.) inactivated at 56° C. for 30 minutes, penicillin (100 units/ml) and streptomycin (100 μg/ml) (GIBCO) was used.
After the compound (I-839) of the present invention was dissolved in dimethylsulfoxide (Nakaraitesk) at […], the solution was diluted with the medium to adjust a final concentration to be 0.01 μg/ml −10 μg/ml. […]
as §14, §9
A commercial kit MESACUP IgE test (Medical & Biological Laboratories Co., Ltd.) was used for the quantification of the IgE. […]

The subject of experiment [10] is C3H/HeN mouse splenocytes stimulated with Concanavalin A (Con A). The experiment can be described thus: Suppressive effect on mitogenic activity of mouse splenocytes in vitro, Con A as mitogen (MTT). It counts as cell-based. As to conditions: Con A 5 μg/ml as mitogen, 3 days. The protocol:
(§17) Experiment 1 Suppressive Effect on a Mitogenic Activity of Mouse Splenocytes In Vitro
(§18) In 96-well microtiter plate 5×10^5 C3H/HeN mouse splenocytes suspended in 0.1 ml of 10% fetal bovine serum-fortified RPMI 1640 medium containing 2 mM of sodium bicarbonate, 50 units/ml of penicillin, 50 μg/ml of streptomycin and 5×10^−5 M of 2-mercaptoethanol were added. Then, 5 μg/ml of Concanavalin A (Con A) or 10 μg/ml of lipopolysaccharide (LPS) as a mitogen and the compound of a pre-determined concentration of the present invention were added to each well so that a final volume of each well reached 0.2 ml. Each compound of the present invention was dissolved in dimethylsulfoxide (DMSO) and diluted with the above RPMI 1640 medium to adjust the final concentration of 100 ng/ml or less. The splenocytes in the 96-well microtiter plate were cultivated at 37° C. for 3 days in an incubator keeping the humidity 100%, carbon dioxide 5% and air 95%. Then, 25 μl of 6 mg/ml MTT [3-(4,5-dimethylthiazol-2-yl)-2,5-diphenyltetrazolium bromide] (Sigma) was added to the each well and cultivated at 37° C. for 4 hours under the same conditions. After the cultivation, 50 μl of 0.02 N hydrochloric acid in 20% sodium dodecyl sulfate (SDS) was added to formazan generated and left at 37° C. for 24 hours for dissolving formazan. An absorption intensity (OD) of formazan generated in proportion to the number of living cells was measured with an immunoreader (InterMed) equipped with a 570 nm filter (The Journal of Immunological Method, 65, 55-63, 1983). The 50% inhibitory concentration of a cell proliferation (IC 50) was calculated from a correlation between the concentration of the compound of the present invention and the absorption intensity.

Experiment [11] has as its system IgG production of human peripheral lymphocytes. The experiment can be described thus: Suppressive effect on the antibody production of human lymphocytes: IgG. It counts as cell-based. As to conditions: 10 days, ELISA. The protocol:
as §10, §11, §12, §13, §14, §15, §16

Experiment [12] has as its system C3H/HeN mouse splenocytes stimulated with lipopolysaccharide (LPS). Nature of the experiment: Suppressive effect on mitogenic activity of mouse splenocytes in vitro, LPS as mitogen (MTT). The following applies: LPS 10 μg/ml as mitogen, 3 days. It is filed as cell-based. On the procedure: as §17, §18
Experiment [13] deals with mouse thymoma strain EL4 cells. Nature of the experiment: Anti-proliferative activity on EL4 cells (MTT). It counts as cell-based. As to conditions: 3 days. The protocol:
Experiment 2 Anti-Proliferative Activity on EL4 Cells
In 96-well microtiter plate 4×10^4/0.1 ml of mouse thymoma strain EL4 cells were added and 0.1 ml of the compound of the present invention was added to the mixture so that the concentration was in the range of 0-5,000 ng/ml. After the cultivation for 3 days, the IC50 was calculated by the MTT method as described in Experiment 1.

Experiment [14] concerns BGG-specific IgE in a serum. The experiment can be described thus: Suppressive effect on the antibody production against bovine γ globulin (BGG), sandwich ELISA. It counts as in vivo, BALB/c mice. The following applies: 100 mg/kg p.o. every day, serum after 21 days. The protocol: Experiment 3 Suppressive Effect on the Antibody Production Against Bovine γ Globulin (BGG)
On an immunizing day and 7 days after, 50 μg of BGG was subcutaneously inoculated to backs of BALB/c mice (male, 6-8 weeks old) for inducing an immune reaction. After the compound of the present invention was dissolved or suspended in N, N-dimethylacetoamide, the mixture was diluted with miglyol 812 neutral oil. A proper volume of the compound was orally administered (p.o.) to mice every day from the next day of the immunizing. A two hundredth weight to body weight of miglyol was administered to mice in a control group. After 21 days, blood was drawn from each mouse and a serum was separated. BGG-specific IgE in a serum was measured by the sandwich ELISA method using a BGG-coating plate. The suppressive rate of IgE production was calculated from the dilution rate of the serum which has the same absorption intensity as that of the control group for judging the effect of the compound of the present invention.

For the molecule `COc1cc(-c2ccc(OCC=C(C)C)c(F)c2)c(OC)cc1-c1ccc(O)cc1` [Compound I-73], the “IC50 IgG2a” value in [1] was 4900 ng/mL. For the same molecule, in experiment [2], the “IC50 IgE” value was found to be 0.044 ng/mL. For the same molecule, the “IC50 IL-5” value in experiment [3] amounted to 15 ng/mL (≈ 36.7 nM). For the same molecule, the “IC50 IL-4” value in [4] was 20 ng/mL (≈ 49 nM). Further, in [5], the “IC50 IgM” value stood at 4200 ng/mL. The “IC50 IgG1” value in experiment [6] was determined as 2600 ng/mL. Also, the “IC50 IL-2” value in experiment [7] turned out to be 500 ng/mL (≈ 1220 nM).

Regarding `COc1cc(-c2ccc(O)cc2)c(OC)c(O)c1-c1ccc(OCC=C(Cl)Cl)c(O)c1` [Compound I-121], the “IC50 IgM” value in experiment [8] is more than 1 ng/mL. The “IC50 IgE” value in experiment [9] was less than 0.0001 ng/mL. The “ConA IC50” value in [10] is 0.8 ng/mL. Also, in experiment [11], the “IC50 IgG” value was less than 0.0001 ng/mL. In addition, in [12], the “LPS IC50” value worked out at 1.2 ng/mL. Moreover, the “EL-4 IC50” value in experiment [13] came to 0.8 ng/mL.

On to `CC(C)=CCOc1ccc(-c2cc(C)c(-c3ccc(O)cc3)cc2C)cc1O` [Compound I-525], for which the “ConA IC50” value in [10] turned out to be 0.76 ng/mL. Also, in experiment [14], the “Suppressive rate of antigen-specific IgE” value is listed as more than 95%. In addition, the “LPS IC50” value in [12] is 1.11 ng/mL. Besides, the “EL-4 IC50” value in experiment [13] was 5.0 ng/mL.
